Results as given in patent publication US9521846B2, “Template-fixed peptidomimetics with antimicrobial activity” (priority 2006, dated 2016).
Values after ≈ are worked out from the molar mass of the structure shown. Non-standard residues stand in square brackets, D forms with d. Residues, ends and D or L forms follow the SMILES beside them. Cha = N[C@@H](CC1CCCCC1)C(=O)O; dDab = NCC[C@@H](N)C(=O)O; Nle = CCCC[C@H](N)C(=O)O; Orn = NCCC[C@H](N)C(=O)O; Dab = NCC[C@H](N)C(=O)O; Aib = CC(C)(N)C(=O)O

Experiments:
[1] = system: human red blood cells (hRBC); test: Hemolysis; assay type: cell-based; settings: 100
Protocol: Hemolysis of red blood cells is often employed for assessment of toxicity of related compounds such as protegrin or tachyplesin. Values are given as %-lysis of red blood cells observed at a concentration of 100 μg/ml. Typical values determined for cationic peptides such as protegrin and tachyplesin range between 30-40% with average MIC-values of 1-5 μg/ml over a wide range of pathogens.
The peptides were tested for their hemolytic activity against human red blood cells (hRBC). Fresh hRBC were washed three times with phosphate buffered saline (PBS) by centrifugation for 10 min at 2000×g. Peptides at a concentration of 100 μM were incubated with 20% v/v hRBC for 1 hour at 37° C. The final erythrocyte concentration was approximately 0.9×10^9 cells per ml. A value of 0% and, respectively, 100% cell lysis was determined by incubation of the hRBC in the presence of PBS alone and, respectively, 0.1% Triton X-100 in H2O. The samples were centrifuged, the supernatant was 20-fold diluted in PBS buffer and the optical density (OD) of the sample at […] was measured. The 100% lysis value (OD540H20) gave an OD540 of approximately 1.3-1.8. Percent hemolysis was calculated as follows: (OD540peptide/OD540H20)×100%.

HELA cells (Acc57) = test: Cytotoxicity assay, MTT reduction (LC 50, GI 50); assay type: cell-based
Protocol: The cytotoxicity of the peptides to HELA cells (Acc57) and COS-7 cells (CRL-1651) was determined using the MIT reduction assay [see ref. 2 and 3, below]. Briefly the method was as follows: HELA cells and COS-7 cells were seeded at 7.0×10^3 and, respectively, 4.5×10^3 cells per well and grown in 96-well […] plates for 24 hours at 37° C. at 5% CO2. At this point, time zero (Tz) was determined by MTT reduction (see below). The supernatant of the remaining wells was discarded, and fresh medium and the peptides in serial dilutions of 12.5, 25 and 50 μM were dispensed into the wells. Each peptide concentration was assayed in triplicate. Incubation of the cells was continued for 48 hours at 37° C. at 5% CO2. Wells were then washed once with phosphate buffered saline (PBS) and subsequently 100 μl MIT reagent (0.5 mg/ml in medium RPMI1640 and, respectively, DMEM) were added to the wells. This was incubated at 37° C. for 2 hours and subsequently the medium was aspirated and 100 μl isopropanol were added to each well. The absorbance at 595 nm of the solubilized product was measured (OD595peptide). For each concentration averages were calculated from triplicates. The percentage of growth was calculated as follows: (OD595peptide-OD595Tz-OD595Empty well)/(OD595Tz-OD595Empty well)×100% and was plotted for each peptide concentration.
The LC 50 values (Lethal Concentration, defined as the concentration that kills 50% of the cells) were determined for each peptide by using the trend line function of EXCEL (Microsoft Office 2000) for the concentrations (50, 25, 12.5 and 0 μM), the corresponding growth percentages and the value −50, (=TREND(C50:C0,%50:%0,−50)). The GI 50 (Growth Inhibition) concentrations were calculated for each peptide by using a trend line function for the concentrations (50, 25, 12.5 and 0 […]), the corresponding percentages and the value 50, (=TREND (C50:C0,%50:%0,50).

P. aeruginosa ATCC 27853 = assay type: cell-based, Pseudomonas aeruginosa; settings: ATCC 27853
Protocol: (§1) The selective antimicrobial activities of the peptides were determined in 96-well plates (Nunclon polystyrene) by the standard NCCLS broth microdilution method (see ref 1, below) with slight modifications. Innocula of the microorganisms were diluted into Mueller-Hinton (MH) broth+0.02% BSA and compared with a 0.5 Mcfarland standard to give appr. 10^6 colony forming units (CFU)/ml. Aliquots (50 μl) of inoculate were added to 50 μl of MH broth+0.02% BSA containing the peptide in serial two-fold dilutions. The following microorganisms were used to determine antibiotic selectivity of the peptides: Escherichia coli (ATCC 25922), Pseudomonas aeruginosa (P. aeruginosa ATCC 27853, P8191900, P1021903, P1021913, IMP 1 Livermore 3140).

[2] = system: Pseudomonas aeruginosa P1021913; assay type: cell-based; settings: P1021913
Protocol: as §1

[3] = system: Pseudomonas aeruginosa IMP 1 Livermore 3140; assay type: cell-based; settings: IMP 1 Livermore 3140
Protocol: as §1

[4] = system: Pseudomonas aeruginosa P1021903; assay type: cell-based; settings: P1021903
Protocol: as §1

[5] = system: Pseudomonas aeruginosa P8191900; assay type: cell-based; settings: P8191900
Protocol: as §1

| Average MIC (P. aeruginosa) | MIC P. aeruginosa ATCC 27853 (P. aeruginosa ATCC 27853) | MIC P. aeruginosa P1021913 [2] | MIC P. aeruginosa IMP1 Livermore 3140 [3] | MIC P. aeruginosa P1021903 [4] | MIC P. aeruginosa P8191900 [5] | SMILES | Hemolysis at 100 μg/ml [1] | Cytotoxicity GI50 Hela cells (HELA cells (Acc57)) |
| --- | --- | --- | --- | --- | --- | --- | --- | --- |
| 0.20 µg/mL | 0.03 µg/mL (≈ 0.019 µM) | 0.16 µg/mL (≈ 0.101 µM) | 0.24 µg/mL (≈ 0.152 µM) | 0.40 µg/mL (≈ 0.253 µM) | 0.16 µg/mL (≈ 0.101 µM) | CCCC[C@@H]1NC(=O)[C@H](Cc2c[nH]c3ccccc23)NC(=O)[C@H]([C@@H](C)O)NC(=O)[C@@H]2CCCN2C(=O)[C@H]2CCCN2C(=O)[C@H](CCN)NC(=O)[C@H](C)NC(=O)[C@H](CCN)NC(=O)[C@H](CCN)NC(=O)[C@H](Cc2c[nH]c3ccccc23)NC(=O)[C@H](CCN)NC(=O)[C@H](CCN)NC(=O)[C@H](CCCCN)NC(=O)[C@H](CCN)NC1=O [Example 31] (cyclo(TW[Nle][Dab]K[Dab][Dab]W[Dab][Dab]A[Dab][dP]P)) | 0.5% | 50 µM |
| 0.65 µg/mL | 0.25 µg/mL (≈ 0.153 µM) | 1.00 µg/mL (≈ 0.611 µM) | 1.00 µg/mL (≈ 0.611 µM) | 0.50 µg/mL (≈ 0.305 µM) | 0.50 µg/mL (≈ 0.305 µM) | CC[C@H](C)[C@@H]1NC(=O)[C@H](Cc2c[nH]c3ccccc23)NC(=O)[C@H](CCC(=O)O)NC(=O)[C@@H]2CCCN2C(=O)[C@H]2CCCN2C(=O)[C@H](CCC(N)=O)NC(=O)[C@H](C)NC(=O)[C@H](CCN)NC(=O)[C@H](CCN)NC(=O)[C@H](Cc2c[nH]c3ccccc23)NC(=O)[C@H](CCN)NC(=O)[C@@H](CCN)NC(=O)[C@H](CCCCN)NC(=O)[C@H](CCN)NC1=O [Example 45] (cyclo(EWI[Dab]K[dDab][Dab]W[Dab][Dab]AQ[dP]P)) | 0.2% | 50 µM |
| >1 µg/mL | 1.00 µg/mL (≈ 0.645 µM) | 1.25 µg/mL (≈ 0.806 µM) | >2 µg/mL | 1.50 µg/mL (≈ 0.967 µM) | 1.00 µg/mL (≈ 0.645 µM) | CC[C@H](C)[C@@H]1NC(=O)[C@H](Cc2c[nH]c3ccccc23)NC(=O)[C@H](C)NC(=O)[C@@H]2CCCN2C(=O)[C@H]2CCCN2C(=O)[C@H](CCN)NC(=O)[C@H](C(C)C)NC(=O)[C@H](CCN)NC(=O)[C@H](CCN)NC(=O)[C@H](Cc2c[nH]c3ccccc23)NC(=O)[C@H](CCN)NC(=O)[C@H](CCN)NC(=O)[C@H](CCN)NC(=O)[C@H](CCN)NC1=O [Example 23] (cyclo(AWI[Dab][Dab][Dab][Dab]W[Dab][Dab]V[Dab][dP]P)) | 0.5% | 13 µM |
| >1 µg/mL | 0.13 µg/mL (≈ 0.0801 µM) | 0.65 µg/mL (≈ 0.4 µM) | >2 µg/mL | 1.50 µg/mL (≈ 0.924 µM) | 0.50 µg/mL (≈ 0.308 µM) | CC[C@H](C)[C@@H]1NC(=O)[C@H](Cc2c[nH]c3ccccc23)NC(=O)[C@H]([C@@H](C)O)NC(=O)[C@@H]2CCCN2C(=O)[C@H]2CCCN2C(=O)[C@H](CCN)NC(=O)[C@H](CC(C)C)NC(=O)[C@H](CCN)NC(=O)[C@H](CCN)NC(=O)[C@H](Cc2c[nH]c3ccccc23)NC(=O)[C@H](CCN)NC(=O)[C@H](CCN)NC(=O)[C@H](CCCCN)NC(=O)[C@H](CCN)NC1=O [Example 7] (cyclo(TWI[Dab]K[Dab][Dab]W[Dab][Dab]L[Dab][dP]P)) | 0.8% | 13 µM |
| 0.31 µg/mL | 0.08 µg/mL (≈ 0.0502 µM) | 0.21 µg/mL (≈ 0.132 µM) | 0.75 µg/mL (≈ 0.47 µM) | 0.21 µg/mL (≈ 0.132 µM) | 0.30 µg/mL (≈ 0.188 µM) | CC[C@H](C)[C@@H]1NC(=O)[C@H](Cc2c[nH]c3ccccc23)NC(=O)[C@H]([C@@H](C)O)NC(=O)[C@@H]2CCCN2C(=O)[C@H]2CCCN2C(=O)[C@H](CCN)NC(=O)C(C)(C)NC(=O)[C@H](CCN)NC(=O)[C@H](CCN)NC(=O)[C@H](Cc2c[nH]c3ccccc23)NC(=O)[C@H](CCN)NC(=O)[C@H](CCN)NC(=O)[C@H](CCCCN)NC(=O)[C@H](CCN)NC1=O [Example 5] (cyclo(TWI[Dab]K[Dab][Dab]W[Dab][Dab][Aib][Dab][dP]P)) | 0.6% | 50 µM |
| 0.33 µg/mL | 0.05 µg/mL (≈ 0.0308 µM) | 0.48 µg/mL (≈ 0.296 µM) | 0.60 µg/mL (≈ 0.37 µM) | 0.29 µg/mL (≈ 0.179 µM) | 0.24 µg/mL (≈ 0.148 µM) | C[C@@H]1NC(=O)[C@H](CCN)NC(=O)[C@H](CCN)NC(=O)[C@H](Cc2c[nH]c3ccccc23)NC(=O)[C@H](CCN)NC(=O)[C@H](CCN)NC(=O)[C@H](CCCCN)NC(=O)[C@H](CCN)NC(=O)[C@H](CC2CCCCC2)NC(=O)[C@H](Cc2c[nH]c3ccccc23)NC(=O)[C@H]([C@@H](C)O)NC(=O)[C@@H]2CCCN2C(=O)[C@H]2CCCN2C(=O)[C@H](CCN)NC1=O [Example 34] (cyclo(TW[Cha][Dab]K[Dab][Dab]W[Dab][Dab]A[Dab][dP]P)) | 0% | 50 µM |
| 0.60 µg/mL | 0.09 µg/mL (≈ 0.055 µM) | 0.50 µg/mL (≈ 0.305 µM) | 2.00 µg/mL (≈ 1.22 µM) | 0.30 µg/mL (≈ 0.183 µM) | 0.13 µg/mL (≈ 0.0794 µM) | CC[C@H](C)[C@@H]1NC(=O)[C@H](Cc2c[nH]c3ccccc23)NC(=O)[C@H]([C@@H](C)O)NC(=O)[C@@H]2CCCN2C(=O)[C@H]2CCCN2C(=O)[C@H](CCN)NC(=O)[C@H](C(C)C)NC(=O)[C@H](CCN)NC(=O)[C@H](CCN)NC(=O)[C@H](Cc2c[nH]c3ccccc23)NC(=O)[C@H](CCN)NC(=O)[C@H](CCN)NC(=O)[C@H](CCCCN)NC(=O)[C@H](CCC(N)=O)NC1=O [Example 30] (cyclo(TWIQK[Dab][Dab]W[Dab][Dab]V[Dab][dP]P)) | 0.5% | 46 µM |
| 0.08 µg/mL | 0.02 µg/mL (≈ 0.0128 µM) | 0.13 µg/mL (≈ 0.083 µM) | 0.19 µg/mL (≈ 0.121 µM) | 0.02 µg/mL (≈ 0.0128 µM) | 0.03 µg/mL (≈ 0.0191 µM) | CC[C@H](C)[C@@H]1NC(=O)[C@H](Cc2c[nH]c3ccccc23)NC(=O)[C@H]([C@@H](C)O)NC(=O)[C@@H]2CCCN2C(=O)[C@H]2CCCN2C(=O)[C@H](CCN)NC(=O)[C@H](C)NC(=O)[C@H](CCN)NC(=O)[C@H](CCN)NC(=O)[C@H](Cc2c[nH]c3ccccc23)NC(=O)[C@H](CCN)NC(=O)[C@@H](CCN)NC(=O)[C@H](CCCN)NC(=O)[C@H](CCN)NC1=O [Example 48] (cyclo(TWI[Dab][Orn][dDab][Dab]W[Dab][Dab]A[Dab][dP]P)) | 0.2% | 50 µM |
